Results taken from the NIST ThermoML archive (doi:10.1016/j.jct.2012.03.034).

Assay: xn = mol fraction of the nth substance listed
Conditions: 101 kPa, Liquid; for viscosity: dual vibrating plate viscometer, AandD Co. Ltd Model SV-10; for speed of sound: Linear variable-path acoustic interferometer; for mass density: Vibrating tube method

CC[NH2+]CC.O=S(=O)([O-])O [diethylammonium hydrogen sulfate] + CN1CCCC1=O
Conditions | mass density, 308.15 K [kg/m3] | mass density, 313.15 K [kg/m3] | speed of sound, 308.15 K [m/s] | speed of sound, 313.15 K [m/s] | viscosity, 303.15 K [mPa·s] | viscosity, 308.15 K [mPa·s] | viscosity, 313.15 K [mPa·s]
x1 = 0.016 | 1030.03 | 1020.1 | 1533 | 1529 | – | – | –
x1 = 0.0346 | – | 1031.41 | – | 1529 | – | – | 0.48
x1 = 0.0347 | 1043.78 | – | 1530 | – | – | 0.67 | –
x1 = 0.092 | 1080.92 | 1060.41 | 1521 | 1521 | – | 4.42 | 2.06
x1 = 0.1316 | 1103.13 | 1079.57 | 1518 | 1516 | – | 9.53 | 5.97
x1 = 0.1916 | 1133.63 | 1100.33 | 1511 | 1511 | – | 17.3 | 13.15
x1 = 0.2992 | 1169.38 | 1123.81 | 1503 | 1502 | – | 30.7 | 24.74
x1 = 0.3455 | 1179.79 | 1129.72 | 1500 | 1498 | – | 36.84 | 30.42
x1 = 0.4175 | 1190.23 | 1134.34 | 1496 | 1491 | – | 45.89 | 36.87
x1 = 0.5442 | 1198.01 | 1134.82 | 1485 | 1474 | – | 57.51 | 46.82
x1 = 0.6829 | 1198.27 | 1128.95 | 1468 | 1450 | – | 63.11 | 52.39
x1 = 0.8359 | 1198.28 | 1123.69 | 1437 | 1411 | – | 55.29 | 46.21
x1 = 0.9342 | 1200.49 | 1123.28 | 1414 | 1382 | – | 37.86 | 30.9
x1 = 0.9684 | 1202.65 | 1124.6 | 1404 | 1370 | – | 27.69 | 23.03
x1 = 1 | 1205.43 | 1126.81 | 1392 | 1356 | 28.9 | 24.6 | 21.9
